The source of these data is patent publication US20040254629A1, “Methods and apparatus for treatment of aneurysmal tissue” (priority 2003, published 2004).

Data set [1] concerns IL-1α expression in stimulated human-derived white blood cells. The data set is described as follows: Combination therapeutic assay, IL-1α content. In kind it is cell-based. The following applies: DOX at 5.69 ug/ml, DEX at 1 ug/ml, alone or combined; 24 hours at 37° C. The procedure:
To assay for cytokine concentration, the solution in each test well was transferred to microcentrifuge tubes and centrifuged (3000 rpm) for 5 minutes to pellet any cells that were drawn from the wells. The supernatants were then transferred to fresh tubes and stored in a minus 85° C. freezer until used. The cytokine content in the stored supernatants was determined using commercially available cytokine ELISA- (enzyme linked immunosorbent assays) based assays from, for example, R&D Systems, Minneapolis, Minn., using the manufacturer's instructions. Essentially, the procedure was as follows: first, 200 μl of the test samples were added to each well of the microplates. The wells of the microplates were precoated with monoclonal antibodies specific to the cytokine being analyzed. All lipopolysaccharide-(LPS) treated samples were diluted 1:10 in RPMI growth media prior to the assay. The plates were covered and incubated for 2 hours at room temperature. Each well was then washed three times with wash buffer (350 μl/well), and 200 μl of cytokine conjugate were added to each well, covered, and incubated for 1 hour at room temperature. Next, 200 μl of substrate solution were added to each well and incubated for 20 minutes at room temperature. […] The optical density readings of the color development were determined in a microplate reader set at 450 nm wavelength. […]

The conditions of data set [2]: cited from earlier work; for elimination / clearance route: in vivo.
Data set [3] addresses ACE (Homo sapiens, UniProt P12821). The following applies: in vitro; cited from earlier work.
The test system of data set [4] is MMP-9 secretion from human-derived white blood cells. The data set is described as follows: MMP assay development: effect of stimulants on MMP-9 release from human-derived white blood cells. In kind it is cell-based. The settings on record: PHA 10 μg/ml alone, five million (5M) cells per well, 24 hours at 37° C. The text has this:
MMP assay development involved two separate determinations. The first set of experiments established the working conditions for the assay, namely the optimal cell density and the choice and concentration of stimulant. MMP-9 is secreted by monocytes, macrophages, and neutrophils, amongst other cells; however, under non-stimulatory in vitro conditions the basal level secretion of MMP-9 by these cells is very low. Thus, for the second set of experiments (performed to determine the inhibitory effects of potential drugs or reagents), the levels of MMP secretion were raised to sufficiently high levels so that drug-mediated differences could be detected.
Human-derived white blood cells were isolated from human blood by a procedure such as that described above. The total cell population was adjusted and added to 24 well polystyrene tissue culture plates in the following cell densities: 5 million, 2 million, 1 million and 0.5 million per well. The stimulants used to stimulate MMP secretion were PMA (phorbol 12-myristate 13-acetate, Sigma #P8139) at a working concentration of 100 nM; PHA (phythohemagglutinin, Sigma #L9017) at a working concentration of 10 μg/ml; and PMA (100 nM)+PHA (10 μg/ml). […] The secreted MMP was determined by ELISA using a Quantikine Human MMP-9 (total) Immunoassay (R&D Systems, #DMP900).

Data set [5] has as its system MMP-9 expression in stimulated human-derived white blood cells. The data set is described as follows: Combination therapeutic assay, MMP-9 content. In kind it is cell-based. The settings on record: DOX at 5.69 ug/ml, DEX at 1 ug/ml, alone or combined; 24 hours at 37° C. The procedure:
Next, to test the effect of therapeutics in combination, assays were performed to determine the effect of doxycycline alone (DOX at 5.69 ug/ml); dexamethasone alone (DEX at 1 ug/ml) and the effect of a combination of doxycycline and dexamethasone (DOX at 5.69 ug/ml)+DEX at 1 ug/ml). Dexamethasone is a potent agent with broad anti-inflammatory (against cytokines, chemokines, prostaglandins, etc.) and immunosuppressive properties. Dexamethasone also has known anti-angiogenic properties. Doxycycline was used as the MMP inhibitor for these studies.
Briefly, human-derived white blood cells were placed in a 24 well plate and exposed to a stimulant (PHA or lipopolysaccharide (LPS)) and the three different treatment regimes for a period of 24 hours at 37° C. The supernatants were then collected and assayed for MMP-9 and IL-1 content.

The test system of data set [6] is MMP-9 secretion from PHA-stimulated human white blood cells. The data set is described as follows: MMP assay: effect of doxycycline on MMP-9 secretion from PHA-stimulated human white blood cells. Format: cell-based. The following applies: PHA 10 μg/ml. The method, then:
To perform an MMP assay to assess the effect of doxycycline on human-derived white blood cells, cells were seeded into 24 well tissue culture plates. The drug concentrations selected for the experiment were based on measured tissue levels of doxycycline following an oral dose of 100 mg. The cells were exposed to the drugs under two schemes. In scheme 1, the cells, the stimulant and the drug were all added at the same time and allowed to incubate for a period of 24 hours. In scheme 2 the cells were preconditioned with the drug for a period of 24 hours and then stimulated with PHA for an additional 24 hours. In this case the total experimental time duration was 48 hours. The seeding densities: 5×10^6 cells per well and assay conditions were as follows: PHA at a working concentration of 10 μg/ml; doxycycline concentrations at 0, 2.5, 5, 10, 12, or 15 μM and either a 24 hour (scheme 1) or 48 hour (scheme 2) duration. MMP-9 analysis was performed using a Quantikine Human MMP-9 (total) Immunoassay (R&D Systems, #DMP900).

A short description of data set [7]: Stability assay of doxycycline and dexamethasone in combination. In kind it is physicochemical. The following applies: DOX (56.9 ug/ml)+DEX (10 ug/ml) mixture, 4 days at 37° C. The method, then:
A stability assay was first performed to ascertain whether doxycycline and dexamethasone react with one another. High concentrations of each solution were combined (DOX (56.9 ug/ml)+DEX (10 ug/ml)) and allowed to incubate for 4 days at 37° C. in an orbital shaker. At the end of four days the concentrations of each drug in the mixture was determined by spectrophotometry and compared to the original concentrations.

Sequence of ACE (P12821 30-1306, species assumed): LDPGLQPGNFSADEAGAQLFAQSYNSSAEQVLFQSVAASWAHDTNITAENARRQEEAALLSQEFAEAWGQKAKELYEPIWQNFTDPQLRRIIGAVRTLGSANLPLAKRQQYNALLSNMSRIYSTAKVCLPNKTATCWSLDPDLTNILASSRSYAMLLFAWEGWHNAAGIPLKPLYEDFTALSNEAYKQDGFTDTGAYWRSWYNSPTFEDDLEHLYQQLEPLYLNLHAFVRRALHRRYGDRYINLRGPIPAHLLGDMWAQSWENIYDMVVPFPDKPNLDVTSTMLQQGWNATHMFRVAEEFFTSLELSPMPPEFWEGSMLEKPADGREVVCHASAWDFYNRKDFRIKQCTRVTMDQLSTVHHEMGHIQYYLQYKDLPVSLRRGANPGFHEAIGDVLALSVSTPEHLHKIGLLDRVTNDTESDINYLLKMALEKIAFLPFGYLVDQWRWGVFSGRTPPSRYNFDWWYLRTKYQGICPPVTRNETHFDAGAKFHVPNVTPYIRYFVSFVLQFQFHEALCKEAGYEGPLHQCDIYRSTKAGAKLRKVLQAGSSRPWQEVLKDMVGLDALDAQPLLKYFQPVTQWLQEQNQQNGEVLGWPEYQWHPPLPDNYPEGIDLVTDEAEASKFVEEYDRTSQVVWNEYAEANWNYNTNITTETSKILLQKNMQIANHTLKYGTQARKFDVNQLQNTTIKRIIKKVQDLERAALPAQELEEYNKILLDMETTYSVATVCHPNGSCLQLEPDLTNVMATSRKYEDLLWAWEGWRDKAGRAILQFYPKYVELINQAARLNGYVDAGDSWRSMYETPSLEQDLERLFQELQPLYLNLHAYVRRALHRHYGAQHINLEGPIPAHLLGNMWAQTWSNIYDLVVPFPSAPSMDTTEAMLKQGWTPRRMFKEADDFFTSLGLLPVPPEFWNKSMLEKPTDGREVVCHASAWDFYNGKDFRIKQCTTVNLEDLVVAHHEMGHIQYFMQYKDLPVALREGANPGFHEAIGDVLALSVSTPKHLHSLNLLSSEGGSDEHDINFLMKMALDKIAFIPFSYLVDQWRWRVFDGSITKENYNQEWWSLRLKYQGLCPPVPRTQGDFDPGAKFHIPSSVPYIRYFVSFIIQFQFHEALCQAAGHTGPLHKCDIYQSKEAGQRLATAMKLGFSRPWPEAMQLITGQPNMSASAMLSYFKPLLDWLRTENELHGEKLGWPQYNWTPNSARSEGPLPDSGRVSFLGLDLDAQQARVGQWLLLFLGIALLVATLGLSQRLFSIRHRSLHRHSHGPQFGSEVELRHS

With `C[C@@H]1C[C@H]2[C@@H]3CCC4=CC(=O)C=C[C@]4(C)[C@@]3(F)[C@@H](O)C[C@]2(C)[C@@]1(O)C(=O)CO` [DEX, dexamethasone], in data set [1], the “inhibition of IL expression compared to the control” value is given as “approximately 85%”. For the molecule `NCCCC[C@H](N[C@@H](CCc1ccccc1)C(=O)O)C(=O)N1CCC[C@H]1C(=O)O` [lisinopril], in data set [2] (oral administration), the “time of peak concentrations in the plasma” value is given as “about 7 hours”. Also, the “ACE inhibitor potency compared with enalaprilat” value in data set [3] is reported as “slightly more potent”.

Take `CCOC(=O)[C@H](CCc1ccccc1)N[C@@H](C)C(=O)N1CC2(C[C@H]1C(=O)O)SCCS2` [spirapril]: the “elimination / clearance route” value in data set [2] was “balanced elimination by the liver and kidneys”. For the molecule `CCC(=O)O[C@@H](O[P@](=O)(CCCCc1ccccc1)CC(=O)N1C[C@H](C2CCCCC2)C[C@H]1C(=O)O)C(C)C` [fosinopril], the “elimination / clearance route” value in data set [2] is “balanced elimination by the liver and kidneys”. In the case of phythohemagglutinin [PHA], in data set [4], the “increase in MMP-9 secretion over basal levels” value was “greater than 200 fold”. With `CC1c2cccc(O)c2C(=O)C2=C(O)C3(O)C(=O)C(C(N)=O)=C(O)C(N(C)C)C3C(O)C21.O` (stereo not shown) [DOX, 4-(Dimethylamino)-1,4,4a,5,5a,6,11, 12a-octahydro-3,5,10,12,12a-pentahydroxy-6-methyl-1,11-dioxo-2-naphthacenecarboxamide monohydrate], the “inhibition of MMP-9 compared to the control” value in data set [5] is “approximately 32%”. In addition, the “effect on MMP-9 expression over 0-15 μM” value in data set [6] (doxycycline 0, 2.5, 5, 10, 12, or 15 μM) is on record as “dose-dependent inhibitory effect”. Further, the “inhibition of MMP-9 expression” value in data set [6] (doxycycline at 15 μM, 5×10^6 cells per well, scheme 1 (24 hour) or scheme 2 (48 hour)) is recorded as around 60%. Moreover, in data set [1], the “inhibition of IL expression compared to the control” value is “no effect on inflammatory cytokine expression”. The entries for the “Final Concentration” value in data set [7] (MES buffer) and in data set [7] (PBS buffer) were “˜56.7 ug/ml” and “˜57.5/ml ug/ml”, respectively. With `C[C@H](CS)C(=O)N1CCC[C@H]1C(=O)O` [captopril], the bioavailability result in data set [2] (given orally) was “about 75%”.
